Legend:
[1] = tested on: Survivin, cIAP2, Mcl-1, XIAP; test: Western blot, expression inhibition of anti-apoptotic proteins in FaDu cell line; type: cell-based; settings: Western blot, 0, 10, 100 nM, 24 hours
[2] = Lactone to carboxylate form conversion in pH 7.4 (RP-HPLC); type: physicochemical; settings: for Conversion from lactone form (active) to carboxylate form (inactive) compared with reference compounds: pH 7.4, references exatecan, DXd, SN-38, FL118
[3] = mouse, in vivo, ip
[4] = tested on: MDA-MB-453 (HER2++) cell line; test: Cell viability assay (CellTiter-Glo), MDA-MB-453 cell line; settings: MDA-MB-453 and FaDu cell lines, 3 days
[5] = tested on: FaDu (Trop2+++) cell lines and Calu-6 (Trop2−−) cell lines; test: In vitro cell cytotoxicity test of Sacituzumab-25-6 (6 days); settings: free payload
DDX5 = DDX5 (Homo sapiens, UniProt P17844); test: Western blot, DDX5 degradation in two cell lines (FaDu, A549); settings: FaDu and A549, 0, 10, 100 nM
Chain of DDX5 (P17844 whole entry): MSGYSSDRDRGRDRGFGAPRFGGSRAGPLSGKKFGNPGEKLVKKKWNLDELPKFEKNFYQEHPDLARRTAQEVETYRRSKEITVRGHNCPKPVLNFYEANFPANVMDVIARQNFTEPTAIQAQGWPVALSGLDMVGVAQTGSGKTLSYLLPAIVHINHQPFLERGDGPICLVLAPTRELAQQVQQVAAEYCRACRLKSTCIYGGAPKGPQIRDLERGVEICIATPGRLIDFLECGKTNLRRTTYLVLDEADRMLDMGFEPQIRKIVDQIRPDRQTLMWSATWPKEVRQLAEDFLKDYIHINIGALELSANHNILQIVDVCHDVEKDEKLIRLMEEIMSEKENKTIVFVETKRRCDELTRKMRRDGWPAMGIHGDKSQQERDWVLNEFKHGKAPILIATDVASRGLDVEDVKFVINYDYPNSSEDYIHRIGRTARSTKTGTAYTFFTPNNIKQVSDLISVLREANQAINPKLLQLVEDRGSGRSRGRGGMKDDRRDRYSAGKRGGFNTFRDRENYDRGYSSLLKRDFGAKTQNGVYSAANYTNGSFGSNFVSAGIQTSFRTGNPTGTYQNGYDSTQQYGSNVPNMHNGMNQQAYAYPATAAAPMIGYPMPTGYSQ

cancer cells = settings: cited from earlier work
[6] = over 21 days; bioconjugated to anti-HER2 antibody, DAR 8; cited from earlier work
FaDu cell line = test: Cell viability assay (CellTiter-Glo), FaDu cell line; type: cell-based; settings: FaDu (does not express ABCG2), 3-day incubation
Protocol: After 24 hours, the cells were treated with 100 μl of drugs at 9 concentrations (serial dilutions of 1/5 each from 1,000 nM). […] Also, a control group (drug concentration 0) that was not treated with drugs was prepared. Incubation at constant temperature (37° C., 5% CO2) was performed for 3 or 6 days. 100 ul of CellTiter-Glo reagent (using CellTiter-Glo® Luminescent Cell Viability Assay kit (Promega, G7571)) was added to each well and pipetted. After incubating at constant temperature (RT) for 10 minutes, luminescence was measured.
Cell viability assays were performed on MDA-MB-453 (HER2++) cell lines and FaDu (HER2+) cell lines using the same method as Example 2-2.

[7] = days 1 and 8 of a 21-day cycle, 25 patients; cited from earlier work
[8] = human, in vivo; cited from earlier work

CC[C@@]1(O)C(=O)OCc2c1cc1n(c2=O)Cc2c-1nc1cc3c(c4c1c2[C@@H](N)CC4)OCO3 [PBX-7011, (1S,10S)-1-amino-10-ethyl-10-hydroxy-1,2,3,10,13,16-hexahydro-11H,14H-benzo[de][1,3]dioxolo[4,5-g]pyrano[3′,4′:6,7]indolizino[1,2-b]quinoline-11,14-dione]
Expression of anti-apoptotic proteins (Survivin, cIAP2, Mcl-1, XIAP) [1]: decrease in the expression of Survivin, cIAP2, Mcl-1, and XIAP as the concentration increased

CC[C@@]1(O)C(=O)OCc2c1cc1n(c2=O)Cc2c-1nc1cc3c(c4c1c2[C@@H](NC(=O)[C@@H](C)O)CC4)OCO3 [PBX-7016]
Expression of anti-apoptotic proteins (Survivin, cIAP2, Mcl-1, XIAP) [1]: decrease in the expression of Survivin, cIAP2, Mcl-1, and XIAP as the concentration increased | Rate of conversion from the lactone form to the carboxylate form ([2]; pH 7.4, 37° C.): 0.8 % per minute | Conversion from lactone form (active) to carboxylate form (inactive) compared with reference compounds [2]: more rapidly and at a higher rate than other reference compounds | Clearance from the blood [3]: cleared from the blood very quickly | IC50 level compared with Dxd [4]: equivalent to or higher than Dxd | Cell membrane penetration of non-target cells / cell death [5]: can penetrate the cell membrane of non-target cells | DDX5 degradation (DDX5): inhibited DDX5 in a concentration-dependent manner

CCc1c2c(nc3ccc(O)cc13)-c1cc3c(c(=O)n1C2)COC(=O)[C@]3(O)CC [SN-38]
IC50 values (cancer cells; several cell lines): nanomolar range

CC[C@@]1(O)C(=O)OCc2c1cc1n(c2=O)Cc2c-1nc1cc(F)c(C)c3c1c2[C@@H](NC(=O)CO)CC3 [Dxd]
Degree of formation of the carboxylate form ([2]; pH 7.4, 37° C.): about 76.5% | Rate of conversion from the lactone form to the carboxylate form ([2]; pH 7.4, 37° C.): 0.6 % per minute | Activity in cancer cells relative to SN-38 (cancer cells): 10 times | Released in plasma [6]: 2.1%

CC[C@@]1(O)C(=O)OCc2c1cc1n(c2=O)Cc2c-1nc1cc3c(c4c1c2[C@@H](NC(=O)CO)CC4)OCO3 [PBX-7014]
Expression of anti-apoptotic proteins (Survivin, cIAP2, Mcl-1, XIAP) [1]: decrease in the expression of Survivin, cIAP2, Mcl-1, and XIAP as the concentration increased | Rate of conversion from the lactone form to the carboxylate form ([2]; pH 7.4, 37° C.): 0.8 % per minute | Conversion from lactone form (active) to carboxylate form (inactive) compared with reference compounds [2]: more rapidly and at a higher rate than other reference compounds

CC[C@@]1(O)C(=O)OCc2c1cc1n(c2=O)Cc2c-1nc1cc3c(c4c1c2[C@@H](NC(=O)[C@@H](O)C1CC1)CC4)OCO3 [PBX-7024]
Cell killing efficacy (IC50) (FaDu cell line): strong cell killing efficacy | Conversion from lactone form (active) to carboxylate form (inactive) compared with reference compounds [2]: more rapidly and at a higher rate than other reference compounds

sacituzumab govitecan
Dose-limiting toxicity [7]: neutropenia | Diarrhea, all-grade [8]: 65% | Febrile neutropenia [8]: 7% | Neutropenia, Grade≥3 [8]: 47% | Neutropenia, all-grade [8]: 61% | Neutropenic colitis [8]: 0.5%

CC[C@@]1(O)C(=O)OCc2c1cc1n(c2=O)Cc2cc3cc4c(cc3nc2-1)OCO4 [FL118]
Expression of anti-apoptotic proteins (Survivin, cIAP2, Mcl-1, XIAP) [1]: strongly inhibiting the expression of anti-apoptotic proteins | Cytotoxicity relative to SN-38 (times more potent) (cancer cells; various cancer cell lines): 5-10 times | DDX5 degradation (DDX5): superior to other substances in DDX5 degradation

CC[C@@]1(O)C(=O)OCc2c1cc1n(c2=O)Cc2c-1nc1cc(F)c(C)c3c1c2[C@@H](N)CC3 [Exatecan]
Expression of anti-apoptotic proteins (Survivin, cIAP2, Mcl-1, XIAP) [1]: strongly inhibits the expression of anti-apoptotic proteins

From patent US20260007760A1, “CAMPTOTHECIN DERIVATIVES THAT BIND TO DDX5 PROTEIN AND PRODRUGS THEREOF” (priority 2022, published 2026)
